In US8192962B2, “Processes for detecting toxic substances” (Daikin Industries, Ltd., priority 2001, dated 2012):

Test system: Mitochondria-located protein genes
Assay: DNA chip mRNA expression in yeast, mitochondria-located protein genes (Table 2)
Assay type: cell-based, Saccharomyces cerevisiae S288C
Conditions: cells incubated two hours with the chemical substance
Procedure, shortened: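 S. cerevisiae S288C grown at 25° C. in YPD to log phase, then exposed 2 h to a toxicant at a growth-inhibiting, non-lethal concentration; untreated cells as control. Poly(A) mRNA reverse-transcribed with Cy3-dUTP or Cy5-dUTP, hybridized >12 h at 65° C. to whole-genome yeast DNA chip; value = fluorescence ratio treated/untreated.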

Structure (SMILES): CCCCCCCCCCCCOS(=O)(=O)[O-].[Na+] [(18), sodium lauryl sulfate]
- The level of expressed mRNA in the presence of chemical substance/The level of expressed mRNA in the absence of chemical substance (yeast gene YJR121W): 1.4
- The level of expressed mRNA in the presence of chemical substance/The level of expressed mRNA in the absence of chemical substance (yeast gene YKL003C): 1.2
- The level of expressed mRNA in the presence of chemical substance/The level of expressed mRNA in the absence of chemical substance (yeast gene YKL016C): 1.7
- The level of expressed mRNA in the presence of chemical substance/The level of expressed mRNA in the absence of chemical substance (yeast gene YKL141W): 1.8
- The level of expressed mRNA in the presence of chemical substance/The level of expressed mRNA in the absence of chemical substance (yeast gene YKL142W): 3.6
- The level of expressed mRNA in the presence of chemical substance/The level of expressed mRNA in the absence of chemical substance (yeast gene YKL148C): 1.0
- The level of expressed mRNA in the presence of chemical substance/The level of expressed mRNA in the absence of chemical substance (yeast gene YKL170W): 1.4
- The level of expressed mRNA in the presence of chemical substance/The level of expressed mRNA in the absence of chemical substance (yeast gene YKL194C): 1.1
- The level of expressed mRNA in the presence of chemical substance/The level of expressed mRNA in the absence of chemical substance (yeast gene YKR066C): 1.1
- The level of expressed mRNA in the presence of chemical substance/The level of expressed mRNA in the absence of chemical substance (yeast gene YLL041C): 1.7
- The level of expressed mRNA in the presence of chemical substance/The level of expressed mRNA in the absence of chemical substance (yeast gene YLR038C): 2.1
- The level of expressed mRNA in the presence of chemical substance/The level of expressed mRNA in the absence of chemical substance (yeast gene YLR259C): 1.0
- The level of expressed mRNA in the presence of chemical substance/The level of expressed mRNA in the absence of chemical substance (yeast gene YLR295C): 1.5
- The level of expressed mRNA in the presence of chemical substance/The level of expressed mRNA in the absence of chemical substance (yeast gene YLR304C): 0.7
- The level of expressed mRNA in the presence of chemical substance/The level of expressed mRNA in the absence of chemical substance (yeast gene YLR348C): 1.0
- The level of expressed mRNA in the presence of chemical substance/The level of expressed mRNA in the absence of chemical substance (yeast gene YLR395C): 2.3
- The level of expressed mRNA in the presence of chemical substance/The level of expressed mRNA in the absence of chemical substance (yeast gene YML054C): 1.6
- The level of expressed mRNA in the presence of chemical substance/The level of expressed mRNA in the absence of chemical substance (yeast gene YML120C): 1.6
- The level of expressed mRNA in the presence of chemical substance/The level of expressed mRNA in the absence of chemical substance (yeast gene YML129C): 1.3
- The level of expressed mRNA in the presence of chemical substance/The level of expressed mRNA in the absence of chemical substance (yeast gene YMR023C): 1.4
- The level of expressed mRNA in the presence of chemical substance/The level of expressed mRNA in the absence of chemical substance (yeast gene YMR035W): 2.4
- The level of expressed mRNA in the presence of chemical substance/The level of expressed mRNA in the absence of chemical substance (yeast gene YMR083W): 1.1
- The level of expressed mRNA in the presence of chemical substance/The level of expressed mRNA in the absence of chemical substance (yeast gene YMR089C): 1.1
- The level of expressed mRNA in the presence of chemical substance/The level of expressed mRNA in the absence of chemical substance (yeast gene YMR152W): 0.9
- The level of expressed mRNA in the presence of chemical substance/The level of expressed mRNA in the absence of chemical substance (yeast gene YMR203W): 0.7
- The level of expressed mRNA in the presence of chemical substance/The level of expressed mRNA in the absence of chemical substance (yeast gene YMR267W): 1.3
- The level of expressed mRNA in the presence of chemical substance/The level of expressed mRNA in the absence of chemical substance (yeast gene YNL055C): 1.7
- The level of expressed mRNA in the presence of chemical substance/The level of expressed mRNA in the absence of chemical substance (yeast gene YNL071W): 1.2
- The level of expressed mRNA in the presence of chemical substance/The level of expressed mRNA in the absence of chemical substance (yeast gene YNL073W): 1.0
- The level of expressed mRNA in the presence of chemical substance/The level of expressed mRNA in the absence of chemical substance (yeast gene YNL104C): 0.9
- The level of expressed mRNA in the presence of chemical substance/The level of expressed mRNA in the absence of chemical substance (yeast gene YNL256W): 0.6
- The level of expressed mRNA in the presence of chemical substance/The level of expressed mRNA in the absence of chemical substance (yeast gene YOL096C): 1.2
- The level of expressed mRNA in the presence of chemical substance/The level of expressed mRNA in the absence of chemical substance (yeast gene YOR020C): 1.7
- The level of expressed mRNA in the presence of chemical substance/The level of expressed mRNA in the absence of chemical substance (yeast gene YOR037W): 1.6
- The level of expressed mRNA in the presence of chemical substance/The level of expressed mRNA in the absence of chemical substance (yeast gene YOR100C): 0.8
- The level of expressed mRNA in the presence of chemical substance/The level of expressed mRNA in the absence of chemical substance (yeast gene YOR130C): 1.1
- The level of expressed mRNA in the presence of chemical substance/The level of expressed mRNA in the absence of chemical substance (yeast gene YOR142W): 1.0
- The level of expressed mRNA in the presence of chemical substance/The level of expressed mRNA in the absence of chemical substance (yeast gene YOR150W): 1.3
- The level of expressed mRNA in the presence of chemical substance/The level of expressed mRNA in the absence of chemical substance (yeast gene YOR176W): 2.1
- The level of expressed mRNA in the presence of chemical substance/The level of expressed mRNA in the absence of chemical substance (yeast gene YOR187W): 1.3
- The level of expressed mRNA in the presence of chemical substance/The level of expressed mRNA in the absence of chemical substance (yeast gene YOR316C): 1.0
- The level of expressed mRNA in the presence of chemical substance/The level of expressed mRNA in the absence of chemical substance (yeast gene YPL040C): 1.1
- The level of expressed mRNA in the presence of chemical substance/The level of expressed mRNA in the absence of chemical substance (yeast gene YPL134C): 1.3
- The level of expressed mRNA in the presence of chemical substance/The level of expressed mRNA in the absence of chemical substance (yeast gene YPL135W): 1.7
- The level of expressed mRNA in the presence of chemical substance/The level of expressed mRNA in the absence of chemical substance (yeast gene YPL215W): 1.1
- The level of expressed mRNA in the presence of chemical substance/The level of expressed mRNA in the absence of chemical substance (yeast gene YPL262W): 1.2
- The level of expressed mRNA in the presence of chemical substance/The level of expressed mRNA in the absence of chemical substance (yeast gene YPR024W): 0.8
- The level of expressed mRNA in the presence of chemical substance/The level of expressed mRNA in the absence of chemical substance (yeast gene YPR037C): 1.7
- The level of expressed mRNA in the presence of chemical substance/The level of expressed mRNA in the absence of chemical substance (yeast gene YPR047W): 1.5
- The level of expressed mRNA in the presence of chemical substance/The level of expressed mRNA in the absence of chemical substance (yeast gene YPR134W): 1.2
